Test results taken from US8765779B2, “Tricyclic derivatives and their pharmaceutical use and compositions” (Cephalon, Inc., priority 2009, dated 2014).

Biological target: T1, human 5-HT6 receptor (Homo sapiens, UniProt P50406)
T1 construct: host or cells: CHO-K1 cells, stably transfected; membranes prepared in house
Test: Human 5-HT6 Receptor Binding Assay ([3H]LSD displacement, scintillation beads)
Conditions: membranes of CHO-K1 cells with recombinant human 5-HT6, 4 nM [3H]LSD; Table 1, class symbols; read-out: h5-HT6 (Ki)

T1 sequence (P50406 whole entry): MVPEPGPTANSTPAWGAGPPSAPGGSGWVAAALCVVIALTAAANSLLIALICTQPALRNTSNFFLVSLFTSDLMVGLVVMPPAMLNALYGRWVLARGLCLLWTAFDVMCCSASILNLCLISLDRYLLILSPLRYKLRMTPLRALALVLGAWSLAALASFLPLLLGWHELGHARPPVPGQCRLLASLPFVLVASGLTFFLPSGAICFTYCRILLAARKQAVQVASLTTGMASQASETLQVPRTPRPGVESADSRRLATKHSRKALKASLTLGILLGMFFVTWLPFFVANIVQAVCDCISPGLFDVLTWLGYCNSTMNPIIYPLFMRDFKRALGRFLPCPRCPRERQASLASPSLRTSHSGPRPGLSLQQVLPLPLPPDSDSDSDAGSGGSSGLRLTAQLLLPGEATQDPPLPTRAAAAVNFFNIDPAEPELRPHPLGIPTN

| Ki [nM] | SMILES |
| --- | --- |
| > 1000 | O=S(=O)(CCc1ccccc1)Oc1ccc2c(c1)OC1CNCCC21 (stereo not shown) [Example 691] |
| > 1000 | O=S(=O)(Oc1ccc2c(c1)C1CCNCC1O2)c1ccc(Cl)cc1 (stereo not shown) [Example 695] |
| > 1000 | O=S(=O)(Oc1ccc2c(c1)C1CCNCC1O2)c1ccccc1 (stereo not shown) [Example 696] |
| > 1000 | O=S(=O)(Cc1ccccc1)Oc1ccc2c(c1)C1CCNCC1O2 (stereo not shown) [Example 697, 1,2,3,4,4a,9a-hexahydro[1]benzofuro[2,3-c]pyridin-6-yl phenylmethanesulfonate] |
| < 500 | O=S(=O)(Oc1ccc2c(c1)C1CCNCC1O2)c1c(Cl)nc2sccn12 (stereo not shown) [Example 698] |
| < 500 | Cc1cccc(S(=O)(=O)Oc2ccc3c(c2)C2CCNCC2O3)c1 (stereo not shown) [Example 699] |
| < 500 | Cc1ccc(S(=O)(=O)Oc2ccc3c(c2)C2CCNCC2O3)cc1 (stereo not shown) [Example 700] |
| > 1000 | O=S(=O)(Oc1ccc2c(c1)C1CCNCC1O2)c1cccc(F)c1 (stereo not shown) [Example 701] |
| > 1000 | O=S(=O)(Oc1ccc2c(c1)C1CCNCC1O2)c1ccc(F)cc1 (stereo not shown) [Example 702] |
| < 500 | Cc1ccc(C)c(S(=O)(=O)Oc2ccc3c(c2)C2CCNCC2O3)c1 (stereo not shown) [Example 704] |
| < 500 | Cc1cc(C)cc(S(=O)(=O)Oc2ccc3c(c2)C2CCNCC2O3)c1 (stereo not shown) [Example 705] |
| < 500 | Cc1ccc(S(=O)(=O)Oc2ccc3c(c2)C2CCNCC2O3)cc1C (stereo not shown) [Example 706] |
| 500 to 1000 | COc1ccc(S(=O)(=O)Oc2ccc3c(c2)C2CCNCC2O3)cc1 (stereo not shown) [Example 707] |
| 500 to 1000 | COc1cccc(S(=O)(=O)Oc2ccc3c(c2)C2CCNCC2O3)c1 (stereo not shown) [Example 708] |
| 500 to 1000 | Cc1ccc(S(=O)(=O)Oc2ccc3c(c2)C2CCNCC2O3)cc1F (stereo not shown) [Example 709] |
| < 500 | O=S(=O)(Oc1ccc2c(c1)C1CCNCC1O2)c1cccc(Cl)c1 (stereo not shown) [Example 710] |
| < 500 | O=S(=O)(Oc1ccc2c(c1)C1CCNCC1O2)c1ccccc1Cl (stereo not shown) [Example 711] |
| > 1000 | O=S(=O)(Oc1ccc2c(c1)C1CCNCC1O2)c1ccc(F)cc1F (stereo not shown) [Example 712] |
| < 500 | O=S(=O)(Oc1ccc2c(c1)C1CCNCC1O2)c1cc2ccccc2o1 (stereo not shown) [Example 713] |
| < 500 | O=S(=O)(Oc1ccc2c(c1)C1CCNCC1O2)c1cc2ccccc2o1 (stereo not shown) [Example 714] |
| < 500 | Cc1cc(C)c(S(=O)(=O)Oc2ccc3c(c2)C2CCNCC2O3)c(C)c1 (stereo not shown) [Example 715] |

| Ki [nM] | SMILES |
| --- | --- |
| < 500 | CC(C)c1ccc(S(=O)(=O)Oc2ccc3c(c2)C2CCNCC2O3)cc1 (stereo not shown) [Example 716] |
| < 500 | Cc1c(Cl)cccc1S(=O)(=O)Oc1ccc2c(c1)C1CCNCC1O2 (stereo not shown) [Example 717] |
| < 500 | Cc1c(Cl)cccc1S(=O)(=O)Oc1ccc2c(c1)C1CCNCC1O2 (stereo not shown) [Example 718] |
| < 500 | Cc1ccc(S(=O)(=O)Oc2ccc3c(c2)C2CCNCC2O3)cc1Cl (stereo not shown) [Example 719] |
| < 500 | O=S(=O)(Oc1ccc2c(c1)C1CCNCC1O2)c1cccc2ccccc12 (stereo not shown) [Example 720] |
| < 500 | O=S(=O)(Oc1ccc2c(c1)C1CCNCC1O2)c1ccc2ccccc2c1 (stereo not shown) [Example 721] |
| 500 to 1000 | O=S(=O)(Oc1ccc2c(c1)C1CCNCC1O2)c1cccc2cccnc12 (stereo not shown) [Example 722] |
| 500 to 1000 | O=S(=O)(Oc1ccc2c(c1)C1CCNCC1O2)c1ccc(F)c(Cl)c1 (stereo not shown) [Example 723] |
| < 500 | O=S(=O)(Oc1ccc2c(c1)C1CCNCC1O2)c1cc2ccccc2s1 (stereo not shown) [Example 724] |
| < 500 | O=S(=O)(Oc1ccc2c(c1)C1CCNCC1O2)c1csc2ccccc12 (stereo not shown) [Example 725] |
| < 500 | O=S(=O)(Oc1ccc2c(c1)C1CCNCC1O2)c1csc2ccccc12 (stereo not shown) [Example 726] |
| 500 to 1000 | CC(C)(C)c1ccc(S(=O)(=O)Oc2ccc3c(c2)C2CCNCC2O3)cc1 (stereo not shown) [Example 727] |
| > 1000 | CC(=O)Nc1ccc(S(=O)(=O)Oc2ccc3c(c2)C2CCNCC2O3)cc1 (stereo not shown) [Example 728] |
| < 500 | O=S(=O)(Oc1ccc2c(c1)C1CCNCC1O2)c1ccc2c(c1)OCCO2 (stereo not shown) [Example 729] |
| > 1000 | O=S(=O)(Oc1ccc2c(c1)C1CCNCC1O2)c1cccc2nsnc12 (stereo not shown) [Example 730] |
| < 500 | COc1ccc(OC)c(S(=O)(=O)Oc2ccc3c(c2)C2CCNCC2O3)c1 (stereo not shown) [Example 731] |
| 500 to 1000 | COc1ccc(S(=O)(=O)Oc2ccc3c(c2)C2CCNCC2O3)cc1OC (stereo not shown) [Example 732] |
| 500 to 1000 | O=S(=O)(Oc1ccc2c(c1)C1CCNCC1O2)c1ccc(-n2cccn2)cc1 (stereo not shown) [Example 733] |
| > 1000 | O=S(=O)(Oc1ccc2c(c1)C1CCNCC1O2)c1ccc(-c2cnco2)cc1 (stereo not shown) [Example 734] |
| > 1000 | O=S(=O)(Oc1ccc2c(c1)C1CCNCC1O2)c1ccc(C(F)(F)F)cc1 (stereo not shown) [Example 735] |
| > 1000 | O=S(=O)(Oc1ccc2c(c1)C1CCNCC1O2)c1ccccc1C(F)(F)F (stereo not shown) [Example 736] |

| Ki [nM] | SMILES |
| --- | --- |
| < 500 | O=S(=O)(Oc1ccc2c(c1)C1CCNCC1O2)c1cccc(C(F)(F)F)c1 (stereo not shown) [Example 737] |
| < 500 | O=S(=O)(Oc1ccc2c(c1)C1CCNCC1O2)c1ccc(Cl)c(Cl)c1 (stereo not shown) [Example 738] |
| < 500 | O=S(=O)(Oc1ccc2c(c1)C1CCNCC1O2)c1cc(Cl)cc(Cl)c1 (stereo not shown) [Example 739] |
| < 500 | O=S(=O)(Oc1ccc2c(c1)C1CCNCC1O2)c1cccc(Cl)c1Cl (stereo not shown) [Example 740] |
| < 500 | O=S(=O)(Oc1ccc2c(c1)C1CCNCC1O2)c1c(Cl)cccc1Cl (stereo not shown) [Example 741] |
| < 500 | O=S(=O)(Oc1ccc2c(c1)C1CCNCC1O2)c1ccc(-c2ccon2)s1 (stereo not shown) [Example 742] |
| < 500 | O=S(=O)(Oc1ccc2c(c1)C1CCNCC1O2)c1ccc(-c2ccccc2)cc1 (stereo not shown) [Example 743] |
| > 1000 | O=S(=O)(Oc1ccc2c(c1)C1CCNCC1O2)c1ccc(OC(F)(F)F)cc1 (stereo not shown) [Example 744] |
| > 1000 | O=S(=O)(Oc1ccc2c(c1)C1CCNCC1O2)c1cccc2cnccc12 (stereo not shown) [Example 745] |
| > 1000 | O=S(=O)(Oc1ccc2c(c1)C1CCNCC1O2)c1ccc(Oc2ccccc2)nc1 (stereo not shown) [Example 746] |
| 500 to 1000 | O=S(=O)(Oc1ccc2c(c1)C1CCNCC1O2)c1csc(C(F)(F)F)c1-c1ccccc1 (stereo not shown) [Example 747] |
| < 500 | Cc1c(S(=O)(=O)Oc2ccc3c(c2)C2CCNCC2O3)sc2ccc(Cl)cc12 (stereo not shown) [Example 748] |
| > 1000 | O=[N+]([O-])c1ccc(S(=O)(=O)Oc2ccc3c(c2)C2CCNCC2O3)cc1 (stereo not shown) [Example 749] |
| > 1000 | O=S(=O)(Cc1cccc(C(F)(F)F)c1)Oc1ccc2c(c1)C1CCNCC1O2 (stereo not shown) [Example 750] |
| > 1000 | O=S(=O)(Cc1ccc(C(F)(F)F)cc1)Oc1ccc2c(c1)C1CCNCC1O2 (stereo not shown) [Example 751] |
| > 1000 | O=S(=O)(Cc1cccc(Cl)c1)Oc1ccc2c(c1)C1CCNCC1O2 (stereo not shown) [Example 752] |
| > 1000 | O=S(=O)(Cc1ccccc1Cl)Oc1ccc2c(c1)C1CCNCC1O2 (stereo not shown) [Example 754] |
| > 1000 | O=S(=O)(CCc1ccccc1)Oc1ccc2c(c1)C1CCNCC1O2 (stereo not shown) [Example 755] |
| > 1000 | O=S(=O)(Cc1ccc(F)cc1F)Oc1ccc2c(c1)C1CCNCC1O2 (stereo not shown) [Example 756] |

| SMILES | Ki [nM] |
| --- | --- |
| Cc1noc(C)c1S(=O)(=O)Oc1ccc2c(c1)C1CCNCC1O2 (stereo not shown) [Example 703] | > 1000 |
| O=S(=O)(Oc1ccc2c(c1)C1CCNCC1O2)c1ccccn1 (stereo not shown) [Example 753] | > 1000 |
| CC12CCNCC1Oc1ccc(OS(=O)(=O)c3ccc(Cl)cc3)cc12 (stereo not shown) [Example 757] | > 1000 |
